Reference: ChEMBL document CHEMBL1127163, “Anilide tertiary carbinols: A new structural class of potent potassium channel openers” (Bioorg Med Chem Lett, 1993)

Legend:
Cavia porcellus [1] = organism: Cavia porcellus; test: Tested for percent increase in efflux rate constant with 54.6 uM of compound using guinea pig detrusor; assay type: functional
Cavia porcellus [2] = organism: Cavia porcellus; test: Tested for relaxant activity of compound with 80 mM KCl; assay type: functional
Cavia porcellus [3] = organism: Cavia porcellus; test: The compound was tested for […] activity against guinea pig detrusor (bladder) strip mildly depolarized with 15 mM KCl; assay type: functional
Cavia porcellus [4] = organism: Cavia porcellus; test: The compound was tested for […] activity against guinea pig vascular tissue (portal vein) strip mildly depolarized with 15 mM KCl; assay type: functional
[5] = Tested for dissociation constant of compound at PH of 7.4; assay type: ADME; conditions: pH 7.4

Structure (SMILES)	Increase (Cavia porcellus [1]) [%]	IC50 (Cavia porcellus [2]) [nM]	IC50 (Cavia porcellus [3]) [nM]	IC50 (Cavia porcellus [4]) [nM]	pKa [5]
C[C@](O)(C(=O)Nc1ccc(S(=O)(=O)c2ccncc2)cc1)C(F)(F)F	40	260000	1600	–	–
C[C@@](O)(C(=O)Nc1ccc(S(=O)(=O)c2ccncc2)cc1)C(F)(F)F	–	–	> 30000	–	–
O=C(c1ccc(NC(=O)C(O)(C(F)F)C(F)F)cc1)c1ccccn1	–	–	70	3	7.5
CC(O)(C(=O)Nc1ccc(S(=O)(=O)c2ccncc2)cc1)C(F)(F)F (racemic)	–	–	3800	–	–
CC1(C)Oc2ccc(C#N)cc2[C@H](N2CCCC2=O)[C@H]1O (single isomer, unassigned) [(-)-CROMAKALIM]	–	–	570	20	–
